Measurements from US9834563B2 (Merck Sharp & Dohme Corp., priority 2013, dated 2017).
Counter-ions that a name gives are not always drawn.

How the values were obtained:
Assay type in all cases: cell-based
[1] = target: T1, Human GPR40 (Homo sapiens, UniProt O14842); test: Inositol phosphate turnover (IP1) assay in HEK cells stably expressing human GPR40; conditions: HEK cells stably expressing human GPR40, 3H-inositol labeling, 60 min compound incubation
Protocol: (§1) Human and mouse GPR40 stable cell-lines were generated in CHO cells stably expressing NFAT BLA (Beta-lactamase). A human GPR40 stable cell-line was generated in HEK cells stably expressing the aequorin expressing reporter. The expression plasmids were transfected using lipofectamine, LIFE TECHNOLOGIES (Carlsbad, Calif.), following manufacturer's instructions. Stable cell-lines were generated following drug selection.
(§2) The assay is performed in a 96-well format. HEK cells stably expressing human GPR40 are plated to be 60-80% confluent within 72 h. After 72 h, the plates are aspirated and the cells washed with inositol-free DMEM (ICN). The wash media is replaced with 150 μL of 3H-inositol labeling media (inositol-free media containing 0.4% human albumin or 0.4% mouse albumin, 1× pen/strep antibiotics, glutamine, 25 mM HEPES to which is added 3H-myo-inositol NEN #NET114A 1 mCi/mL, 25 Ci/mmol diluted 1:150 in loading media with a final specific radioactivity of 1 μCi/150 μL). Alternatively, the human and mouse albumin can be added after the overnight labeling step before the addition of LiCl.
The assay is typically run the next day after 18 h labeling. On the day of the assay, 5 μL of 300 mM LiCl is added to all wells and incubated at 37 degrees for 20 min. […] Beads are allowed to settle and the plates are counted in the Wallac MICROBETA instrument. […]

[2] = target: T1, Human GPR40; test: FLIPR assay: agonist-induced calcium mobilization in GPR40/CHO NFAT BLA cells; set-up: expressed in transfected cells; host or cells: CHO cells stably expressing NFAT BLA (beta-lactamase)
Source text: as §1
FLIPR (Fluorimetric Imaging Plate Reader, Molecular Devices) assays were performed to measure agonist-induced calcium mobilization of the stable clones. For the FLIPR assay, one day before assay, GPR40/CHO NFAT BLA cells were seeded into black-wall-clear-bottom 384-well plates (Costar) at 1.4×10e4 cells/20 μL medium/well. The cells were incubated with 20 μl/well of the assay buffer (HBSS, 0.1% BSA, 20 mM HEPES, 2.5 mM probenecid, pH 7.4) containing 8 μM fluo-4, AM, 0.08% pluronic acid at room temperature for 100 minutes. Fluorescence output was measured using FLIPR. Compounds were dissolved in DMSO and diluted to desired concentrations with assay buffer. 13.3 μL/well of compound solution was added. The activities of the compounds in the examples have EC50 (effective concentration of compound to afford 50% of the maximum observed fluorescence) values listed in Table I.

[3] = target: T1, Human GPR40; test: Inositol phosphate turnover (IP1) assay in HEK cells stably expressing human GPR40; set-up: expressed in transfected cells; conditions: HEK cells stably expressing human GPR40, 3H-inositol labeling, 60 min compound incubation
Protocol: as §1, §2
The assay is typically run the next day after 18 h labeling. On the day of the assay, 5 μL of 300 mM LiCl is added to all wells and incubated at 37 degrees for 20 min. 0.75 μL of 200× compounds are added and incubated with the cells for 60 min at 37 degrees. The media is then aspirated off and the assay terminated with the addition of 60 μL 10 mM formic acid. The cells are lysed for 60 min at room temperature. 15-30 μL of lysate is mixed with 70 μL/1 mg YSi SPA beads AMERSHAM (United Kingdom) in clear bottom Isoplates. The plates are shaken for 2 h at room temperature. Beads are allowed to settle and the plates are counted in the Wallac MICROBETA instrument. The activities of the compounds in the examples have EC50 (effective concentration of compound to afford 50% of the maximum observed […]) values listed in Table I.

T1 sequence (O14842 whole entry): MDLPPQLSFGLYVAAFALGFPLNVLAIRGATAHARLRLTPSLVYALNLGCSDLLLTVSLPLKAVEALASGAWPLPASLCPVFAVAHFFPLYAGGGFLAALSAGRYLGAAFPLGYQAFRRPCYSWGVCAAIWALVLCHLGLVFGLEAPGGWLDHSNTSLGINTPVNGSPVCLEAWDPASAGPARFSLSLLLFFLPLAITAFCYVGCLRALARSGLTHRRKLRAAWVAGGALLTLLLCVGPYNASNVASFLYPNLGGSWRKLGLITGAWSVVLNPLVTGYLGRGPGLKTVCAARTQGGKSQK

Compound | EC50 [1] | EC50 [2] | EC50 [3]
CS(=O)(=O)CCCOc1ncc(-c2ccc(F)c(COc3ccc4c(c3)C[C@H]3[C@H](C(=O)O)[C@@H]43)c2)c(C(F)(F)F)n1 [Example 33] | 0.0065 µM | 0.0307 µM | –
Cc1nc(N2CCC3(C=Cc4ccccc43)CC2)ccc1-c1ccc(F)c(COc2ccc3c(c2)C[C@H]2[C@H](C(=O)O)[C@@H]32)c1 [Example 40] | – | 0.032 µM | 0.519 µM
Cc1nc(N2CCC(O)CC2)ccc1-c1ccc(F)c(COc2ccc3c(c2)C[C@H]2[C@H](C(=O)O)[C@@H]32)c1 [Example 41, (1S,1aS,6aR)-4-((2-fluoro-5-(6-(4-hydroxypiperidin-1-yl)-2-methylpyridin-3-yl)benzyl)oxy)-1,1a,6,6a-tetrahydrocyclopropa[a]indene-1-carboxylic acid] | – | 0.0224 µM | 0.006 µM
Cc1nc(N2CCC(C(F)(F)F)CC2)ccc1-c1ccc(F)c(COc2ccc3c(c2)C[C@H]2[C@H](C(=O)O)[C@@H]32)c1 [Example 42, (1S,1aS,6aR)-4-((2-fluoro-5-(2-methyl-6-(4-(trifluoromethyl)piperidin-1-yl)pyridin-3-yl)benzyl)oxy)-1,1a,6,6a-tetrahydrocyclopropa[a]indene-1-carboxylic acid] | – | 0.0128 µM | 0.051 µM
Cc1nc(N2CCC(C)(O)CC2)ccc1-c1ccc(F)c(COc2ccc3c(c2)C[C@H]2[C@H](C(=O)O)[C@@H]32)c1 [Example 43, (1S,1aS,6aR)-4-((2-fluoro-5-(6-(4-hydroxy-4-methylpiperidin-1-yl)-2-methylpyridin-3-yl)benzyl)oxy)-1,1a,6,6a-tetrahydrocyclopropa[a]indene-1-carboxylic acid] | – | 0.0755 µM | 0.013 µM
Cc1nc(N2CCC(C#N)(c3ccccc3)CC2)nc(C)c1-c1ccc(F)c(COc2ccc3c(c2)C[C@H]2[C@H](C(=O)O)[C@@H]32)c1 [Example 44, (1S,1aS,6aR)-4-((5-(2-(4-cyano-4-phenylpiperidin-1-yl)-4,6-dimethylpyrimidin-5-yl)-2-fluorobenzyl)oxy)-1,1a,6,6a-tetrahydrocyclopropa[a]indene-1-carboxylic acid] | – | 0.0232 µM | 0.221 µM
Cc1nc(N2CCC(c3ccccc3)CC2)nc(C)c1-c1ccc(F)c(COc2ccc3c(c2)C[C@H]2[C@H](C(=O)O)[C@@H]32)c1F [Example 45, (1S,1aS,6aR)-4-((3-(4,6-dimethyl-2-(4-phenylpiperidin-1-yl)pyrimidin-5-yl)-2,6-difluorobenzyl)oxy)-1,1a,6,6a-tetrahydrocyclopropa[a]indene-1-carboxylic acid] | – | 0.0294 µM | 0.853 µM
Cc1nc(N2CCC(C#N)(c3ccccc3)CC2)nc(C)c1-c1ccc(F)c(COc2ccc3c(c2)C[C@H]2[C@H](C(=O)O)[C@@H]32)c1F [Example 46, (1S,1aS,6aR)-4-((3-(2-(4-cyano-4-phenylpiperidin-1-yl)-4,6-dimethylpyrimidin-5-yl)-2,6-difluorobenzyl)oxy)-1,1a,6,6a-tetrahydrocyclopropa[a]indene-1-carboxylic acid] | – | 0.0387 µM | 0.629 µM
Cc1nc(N2CCC(CNS(C)(=O)=O)C2)ccc1-c1ccc(F)c(COc2ccc3c(c2)C[C@H]2[C@H](C(=O)O)[C@@H]32)c1 (stereo partly drawn) [Example 47, (1S,1aS,6aR)-4-((2-fluoro-5-(2-methyl-6-(3-(methylsulfonamidomethyl)pyrrolidin-1-yl)pyridin-3-yl)benzyl)oxy)-1,1a,6,6a-tetrahydrocyclopropa[a]indene-1-carboxylic acid] | – | 0.0178 µM | 0.016 µM
Cc1nc(N2CCN(S(C)(=O)=O)CC2)ccc1-c1cccc(COc2ccc3c(c2)C[C@H]2[C@H](C(=O)O)[C@@H]32)c1 [Example 48] | 0.0385 µM | 0.0767 µM | –
Cc1nc(OC2CCN(S(C)(=O)=O)CC2)ccc1-c1ccc(F)c(COc2ccc3c(c2)C[C@H]2[C@H](C(=O)O)[C@@H]32)c1 [Example 49, (1S,1aS,6aR)-4-((2-fluoro-5-(2-methyl-6-((1-(methylsulfonyl)piperidin-4-yl)oxy)pyridin-3-yl)benzyl)oxy)-1,1a,6,6a-tetrahydrocyclopropa[a]indene-1-carboxylic acid] | – | 0.0289 µM | 0.0195 µM
Cc1nc(N2CCC(CS(C)(=O)=O)CC2)ccc1-c1ccc(F)c(COc2ccc3c(c2)C[C@H]2[C@H](C(=O)O)[C@@H]32)c1 [Example 50, (1S,1aS,6aR)-4-((2-fluoro-5-(2-methyl-6-(4-((methylsulfonyl)methyl)piperidin-1-yl)pyridine-3-yl)benzyl)oxy)-1,1a,6,6a-tetrahydrocyclopropa[a]indene-1-carboxylic acid] | – | 0.058 µM | 0.027 µM
Cc1nc(N2CC(S(C)(=O)=O)C2)ccc1-c1ccc(F)c(COc2ccc3c(c2)C[C@H]2[C@H](C(=O)O)[C@@H]32)c1 [Example 51, (1S,1aS,6aR)-4-((2-fluoro-5-(2-methyl-6-(3-(methylsulfonyl)azetidin-1-yl)pyridin-3-yl)benzyl)oxy)-1,1a,6,6a-tetrahydrocyclopropa[a]indene-1-carboxylic acid] | – | 0.0233 µM | 0.0263 µM
Cc1c(-c2ccc(F)c(COc3ccc4c(c3)C[C@H]3[C@H](C(=O)O)[C@@H]43)c2)ccc2nc(-c3ccncc3)sc12 [Example 52, (1S,1aS,6aR)-4-((2-fluoro-5-(7-methyl-2-(pyridin-4-yl)benzo[d]thiazol-6-yl)benzyl)oxy)-1,1a,6,6a-tetrahydrocyclopropa[a]indene-1-carboxylic acid] | – | 0.0354 µM | 0.03 µM
Cc1cc(-c2ccc(F)c(COc3ccc4c(c3)C[C@H]3[C@H](C(=O)O)[C@@H]43)c2)c2c(cnn2C)n1 [Example 53, 7-(3-((((1S,1aS,6aR)-1-carboxy-1,1a,6,6a-tetrahydrocyclopropa[a]inden-4-yl)oxy)methyl)-4-fluorophenyl)-1,5-dimethyl-1H-pyrazolo[4,3-b]pyridin-4-ium formate] | – | 0.0518 µM | 0.039 µM
CS(=O)(=O)CCCOc1ncc(-c2ccc(F)c(COc3ccc4c(c3)C[C@H]3[C@H](C(=O)O)[C@@H]43)c2)cc1C(F)(F)F [Example 54, (1S,1aS,6aR)-4-((2-Fluoro-5-(6-(3-(methylsulfonyl)propoxy)-5-(trifluoromethyl)pyridin-3-yl)benzyl)oxy)-1,1a,6,6a-tetrahydrocyclopropa[a]indene-1-carboxylic acid] | – | 0.0507 µM | 0.236 µM
O=C(O)[C@H]1[C@@H]2Cc3cc(OCc4cc(-c5cnc(NCC6CCOCC6)cc5C(F)(F)F)ccc4F)ccc3[C@@H]21 [Example 55, (1S,1aS,6aR)-4-((2-fluoro-5-(6-(((tetrahydro-2H-pyran-4-yl)methyl)amino)-4-(trifluoromethyl)pyridin-3-yl)benzyl)oxy)-1,1a,6,6a-tetrahydrocyclopropa[a]indene-1-carboxylic acid] | – | 0.0354 µM | 0.0055 µM
